Values quoted from earlier work in US12208061B2 (EXORAO LIFE SCIENCE S.R.L., priority 2019, dated 2025).
Read-outs that look alike come from different tables or passages of the source.

Key:
[1] = tested on: gram-positive bacteria or anaerobes; details: against gram-positive bacteria or anaerobes
[2] = tested on: gram-negative aerobic pathogens including Pseudomonas aeruginosa; details: in vitro
[3] = solution for intravenous infusion

## C[C@H]1[C@H](NC(=O)/C(=N\OC(C)(C)C(=O)O)c2csc(N)n2)C(=O)N1S(=O)(=O)O [Aztreonam, (Z)-2-[[[(2-amino-4-thiazolyl)[[(2S,3S)-2-methyl-4-oxo-1-sulfo-3-azetidinyl]carbamoyl]methylene]amino]oxy]-2-methylpropionic acid]
[1]
  antimicrobial activity: no useful activity
[2]
  pH range over which antimicrobial activity is maintained: 6 to 8
[3]; controlled room temperature
  time within which reconstituted solution should be used: ≤ 48 h
[3]; refrigerated at 2° C. to 8° C.
  time within which reconstituted solution should be used: within seven days
